Results published in patent US20120190669A1, “OXINDOLE COMPOUNDS” (CYLENE PHARMACEUTICALS, INC., priority 2008, published 2012).

test system: PC-3 human prostatic cancer cells; experiment: Alamar Blue cell proliferation assay, PC3; format: cell-based; conditions: Table 5, read-out: AB: PC3 IC50
Procedure: (§1) A representative cell-proliferation assay protocol using Alamar Blue dye (stored at 4° C., use 20 ul per well) is described hereafter.
(§2) 96-Well Plate Setup and Compound Treatment
(§3) a. Split and trypsinize cells.
(§4) b. Count cells using hemocytometer.
(§5) c. Plate 4,000-5,000 cells per well in 100 μl of medium and seed into a 96-well plate according to the following plate layout. Add cell culture medium only to wells B10 to B12. Wells B1 to B9 have cells but no compound added.
(§6) d. Add 100 μl of 2× drug dilution to each well in a concentration shown in the plate layout above. At the same time, add 100 μl of media into the control wells (wells 1310 to B12). Total volume is 200 μl/well.
(§7) e. Incubate four (4) days at 37° C., 5% CO2 in a humidified incubator.
(§8) f. Add 20 μl Alamar Blue reagent to each well.
(§9) g. Incubate for four (4) hours at 37° C., 5% CO2 in a humidified incubator.
(§10) h. Record fluorescence at an excitation wavelength of 544 nm and emission wavelength of 590 nm using a microplate reader.
(§11) In the assays, cells are cultured with a test compound for approximately four days, the dye is then added to the cells and fluorescence of […] dye is detected after approximately four hours. Different types of cells can be utilized in the assays (e.g., HCT-116 human colorectal carcinoma cells, PC-3 human prostatic cancer cells and MiaPaca human pancreatic carcinoma cells).

| IC50 [µM] | SMILES |
| --- | --- |
| 7.53 | CN(C)C1CCN(C(=O)c2cccc(-c3coc(/C=C4/C(=O)Nc5ccc(F)cc54)c3)c2)CC1 [drawing 256] |
| 1.65 | CN1CCCCC1CNC(=O)c1cccc(-c2coc(/C=C3/C(=O)Nc4ccccc43)c2)c1 (stereo not drawn) |
| > 10 | CN1CCCCC1CNC(=O)c1cccc(-c2coc(/C=C3/C(=O)Nc4ccc(F)cc43)c2)c1 (stereo not drawn) [drawing 253] |
| > 10 | CCN(CC)CCNC(=O)c1cccc(-c2coc(/C=C3/C(=O)Nc4ccc(F)cc43)c2)c1 [drawing 254] |
| 1.89 | COC(=O)c1cccc(-c2coc(/C=C3/C(=O)Nc4ccccc43)c2)c1 |
| > 10 | CN(C)C1CCN(C(=O)c2cccc(-c3coc(/C=C4/C(=O)Nc5ccccc54)c3)c2)CC1 |
| > 10 | CCN1CCCC1CNC(=O)c1cccc(-c2coc(/C=C3/C(=O)Nc4ccc(F)cc43)c2)c1 (stereo not drawn) [drawing 250] |

test system: MiaPaca human pancreatic carcinoma cells; experiment: Alamar Blue cell proliferation assay, MiaPaCa; format: cell-based; conditions: MIA PaCa-2, Table 5, read-out: AB: MiaPaCa IC50
Procedure: as §1, §2, §3, §4, §5, §6, §7, §8, §9, §10, §11

| IC50 [µM] | SMILES |
| --- | --- |
| > 10 | CN(C)C1CCN(C(=O)c2cccc(-c3coc(/C=C4/C(=O)Nc5ccc(F)cc54)c3)c2)CC1 [drawing 256] |
| 2.4 | CN1CCCCC1CNC(=O)c1cccc(-c2coc(/C=C3/C(=O)Nc4ccccc43)c2)c1 (stereo not drawn) |
| > 10 | CN1CCCCC1CNC(=O)c1cccc(-c2coc(/C=C3/C(=O)Nc4ccc(F)cc43)c2)c1 (stereo not drawn) [drawing 253] |
| > 10 | CCN(CC)CCNC(=O)c1cccc(-c2coc(/C=C3/C(=O)Nc4ccc(F)cc43)c2)c1 [drawing 254] |
| 4.34 | COC(=O)c1cccc(-c2coc(/C=C3/C(=O)Nc4ccccc43)c2)c1 |
| 9.37 | CN(C)C1CCN(C(=O)c2cccc(-c3coc(/C=C4/C(=O)Nc5ccccc54)c3)c2)CC1 |
| > 10 | CCN1CCCC1CNC(=O)c1cccc(-c2coc(/C=C3/C(=O)Nc4ccc(F)cc43)c2)c1 (stereo not drawn) [drawing 250] |

test system: K-562; experiment: Alamar Blue cell proliferation assay, K-562; format: cell-based; conditions: Homo sapiens, K562, Table 5, read-out: AB: K-562 IC50
Procedure: as §1, §2, §3, §4, §5, §6, §7, §8, §9, §10, §11

| IC50 [µM] | SMILES |
| --- | --- |
| 3.7 | CN(C)C1CCN(C(=O)c2cccc(-c3coc(/C=C4/C(=O)Nc5ccc(F)cc54)c3)c2)CC1 [drawing 256] |
| 0.099 | CN1CCCCC1CNC(=O)c1cccc(-c2coc(/C=C3/C(=O)Nc4ccccc43)c2)c1 (stereo not drawn) |
| 1.65 | CN1CCCCC1CNC(=O)c1cccc(-c2coc(/C=C3/C(=O)Nc4ccc(F)cc43)c2)c1 (stereo not drawn) [drawing 253] |
| 2.44 | CCN(CC)CCNC(=O)c1cccc(-c2coc(/C=C3/C(=O)Nc4ccc(F)cc43)c2)c1 [drawing 254] |
| 1.31 | COC(=O)c1cccc(-c2coc(/C=C3/C(=O)Nc4ccccc43)c2)c1 |
| 0.077 | CN(C)C1CCN(C(=O)c2cccc(-c3coc(/C=C4/C(=O)Nc5ccccc54)c3)c2)CC1 |
| 0.941 | CCN1CCCC1CNC(=O)c1cccc(-c2coc(/C=C3/C(=O)Nc4ccc(F)cc43)c2)c1 (stereo not drawn) [drawing 250] |

test system: HCT-116 human colorectal carcinoma cells; experiment: Alamar Blue cell proliferation assay, HCT-116; format: cell-based; conditions: Table 5, read-out: AB: HCT-116 IC50
Procedure: as §1, §2, §3, §4, §5, §6, §7, §8, §9, §10, §11

| IC50 [µM] | SMILES |
| --- | --- |
| 3.85 | CN(C)C1CCN(C(=O)c2cccc(-c3coc(/C=C4/C(=O)Nc5ccc(F)cc54)c3)c2)CC1 [drawing 256] |
| 2.49 | CN1CCCCC1CNC(=O)c1cccc(-c2coc(/C=C3/C(=O)Nc4ccccc43)c2)c1 (stereo not drawn) |
| 4.47 | CN1CCCCC1CNC(=O)c1cccc(-c2coc(/C=C3/C(=O)Nc4ccc(F)cc43)c2)c1 (stereo not drawn) [drawing 253] |
| 3.6 | CCN(CC)CCNC(=O)c1cccc(-c2coc(/C=C3/C(=O)Nc4ccc(F)cc43)c2)c1 [drawing 254] |
| 2.33 | COC(=O)c1cccc(-c2coc(/C=C3/C(=O)Nc4ccccc43)c2)c1 |
| 7.01 | CN(C)C1CCN(C(=O)c2cccc(-c3coc(/C=C4/C(=O)Nc5ccccc54)c3)c2)CC1 |
| 5.23 | CCN1CCCC1CNC(=O)c1cccc(-c2coc(/C=C3/C(=O)Nc4ccc(F)cc43)c2)c1 (stereo not drawn) [drawing 250] |

biological target: recombinant PIM-1 (Homo sapiens, UniProt P11309); experiment: PIM-1 kinase assay (radiometric, 15 uM ATP, DMSO 4%); format: biochemical; conditions: Table 5; compound at 500 nM; read-out: PIM1: % inh 500 nM
Sequence (P11309 whole entry): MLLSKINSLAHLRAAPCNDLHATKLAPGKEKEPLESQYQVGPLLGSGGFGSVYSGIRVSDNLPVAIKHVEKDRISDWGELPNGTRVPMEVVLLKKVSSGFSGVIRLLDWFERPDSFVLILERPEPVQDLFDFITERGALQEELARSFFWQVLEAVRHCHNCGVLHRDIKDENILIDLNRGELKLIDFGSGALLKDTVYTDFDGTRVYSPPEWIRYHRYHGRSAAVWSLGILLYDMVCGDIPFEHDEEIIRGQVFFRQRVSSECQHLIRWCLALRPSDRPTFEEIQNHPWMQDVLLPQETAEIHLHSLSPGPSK

| inhibition at 0.5 µM [%] | SMILES |
| --- | --- |
| 10.8 | CN(C)C1CCN(C(=O)c2cccc(-c3coc(/C=C4/C(=O)Nc5ccc(F)cc54)c3)c2)CC1 [drawing 256] |
| -28.9 | CN1CCCCC1CNC(=O)c1cccc(-c2coc(/C=C3/C(=O)Nc4ccccc43)c2)c1 (stereo not drawn) |
| 9.42 | CN1CCCCC1CNC(=O)c1cccc(-c2coc(/C=C3/C(=O)Nc4ccc(F)cc43)c2)c1 (stereo not drawn) [drawing 253] |
| 11.5 | CCN(CC)CCNC(=O)c1cccc(-c2coc(/C=C3/C(=O)Nc4ccc(F)cc43)c2)c1 [drawing 254] |
| -18.4 | COC(=O)c1cccc(-c2coc(/C=C3/C(=O)Nc4ccccc43)c2)c1 |
| -38.8 | CN(C)C1CCN(C(=O)c2cccc(-c3coc(/C=C4/C(=O)Nc5ccccc54)c3)c2)CC1 |
| 17.1 | CCN1CCCC1CNC(=O)c1cccc(-c2coc(/C=C3/C(=O)Nc4ccc(F)cc43)c2)c1 (stereo not drawn) [drawing 250] |

test system: MV-4-11; experiment: Alamar Blue cell proliferation assay, MV-4-11; format: cell-based; conditions: Homo sapiens, MV4-11, Table 5, read-out: AB: MV-4-11 IC50
Procedure: as §1, §2, §3, §4, §5, §6, §7, §8, §9, §10, §11

| IC50 [µM] | SMILES |
| --- | --- |
| 0.516 | CN(C)C1CCN(C(=O)c2cccc(-c3coc(/C=C4/C(=O)Nc5ccc(F)cc54)c3)c2)CC1 [drawing 256] |
| 0.12 | CN1CCCCC1CNC(=O)c1cccc(-c2coc(/C=C3/C(=O)Nc4ccccc43)c2)c1 (stereo not drawn) |
| 0.627 | CN1CCCCC1CNC(=O)c1cccc(-c2coc(/C=C3/C(=O)Nc4ccc(F)cc43)c2)c1 (stereo not drawn) [drawing 253] |
| 0.271 | CCN(CC)CCNC(=O)c1cccc(-c2coc(/C=C3/C(=O)Nc4ccc(F)cc43)c2)c1 [drawing 254] |
| > 10 | COC(=O)c1cccc(-c2coc(/C=C3/C(=O)Nc4ccccc43)c2)c1 |
| 2.14 | CN(C)C1CCN(C(=O)c2cccc(-c3coc(/C=C4/C(=O)Nc5ccccc54)c3)c2)CC1 |
| 0.485 | CCN1CCCC1CNC(=O)c1cccc(-c2coc(/C=C3/C(=O)Nc4ccc(F)cc43)c2)c1 (stereo not drawn) [drawing 250] |
